Measured values from KR20100075412A, “방사성 세포 표지자” (경북대학교 산학협력단, priority 2008, dated 2010).
Like-named read-outs stand apart in the source and are kept apart here.

Experiments:
[1] = test system: cells [세포]; details: cited from earlier work
[2] = test system: H9C2 cells; experiment: Cell labelling with [131I]OIB / [131I]HIB, H9C2 cells; type: cell-based; details: H9C2, in PBS, centrifuged and washed several times
[3] = test system: SCC-7 cells; experiment: Cell labelling with [131I]OIB / [131I]HIB, SCC-7 cells; type: cell-based; details: SCC-7, in PBS, centrifuged and washed several times
[4] = test system: rat cardiomyocytes L6 [랫트(rat) 심근세포 L6]; experiment: Gamma camera imaging of labelled L6 cells transplanted into rat myocardium; type: in vivo; details: L6 labelled for 2 h, transplanted directly into rat myocardium
[5] = test system: HeLa cells; experiment: Cell labelling with [131I]OIB / [131I]HIB, HeLa cells; type: cell-based; details: in PBS, centrifuged and washed several times
[6] = test system: L6 cells; experiment: Cell labelling with [131I]OIB / [131I]HIB, L6 cells; type: cell-based, rat; details: for cell labelling yield: L6, in PBS, centrifuged and washed several times
[7] = test system: 4T1 cells; experiment: Cell labelling with [131I]OIB / [131I]HIB, 4T1 cells; type: cell-based; details: 4T1, in PBS, centrifuged and washed several times
[8] = test system: cells with introduced L6-NIS/GFP reporter [L6-NIS/GFP 리포터가 이입된 세포]; experiment: Gamma camera and GFP imaging of labelled L6-NIS/GFP cells injected subcutaneously in nude mice; type: in vivo, nude mouse
[9] = MicroPET imaging after tail vein injection of [124I]HIB; type: in vivo; details: mouse
[10] = test system: labelled cells [표지한 세포]; experiment: MicroPET imaging after tail vein injection of [124I]HIB-labelled cells; type: in vivo; details: mouse, imaged for 2 h after injection, for 2 h at 18 h, and up to 66 h (about 3 days)

With `O=C(ON1C(=O)CCC1=O)c1ccc([18F])cc1` [[18F]FSB, N-succimidyl-4-[18F]fluorobenzoate] as the compound, how does the “loss of label from cells” value ([1]; according to previous results) read?
Its value is “알킬레이트된 부분이 신진 대사로 방출되면서 세포에서 표지자가 빠져나가는 것으로 여겨진다”.

With `CCCCCCCC/C=C\CCCCCCCCOC(=O)c1ccc([131I])cc1` [[131I]OIB] as the compound, how does the cell labelling yield [2] read?
The cell labelling yield was at least 20%.

And the cell labelling yield [3]?
The cell labelling yield was at least 20%.

What about the “period over which transplanted labelled cells were imaged by gamma camera” value [4] of the same compound?
The value was 2 weeks.

What about the cell labelling yield [5] of the same compound?
Its cell labelling yield is at least 20%.

What about the cell labelling yield [6] of the same compound?
Its cell labelling yield is at least 20%.

And the cell labelling efficiency ([6]; [131I]OIB 136 μCi, 4x10^5 L6 cells in serum-free medium, room temperature, 30 min, washed twice with PBS)?
Its cell labelling efficiency is 26%.

What about the cell labelling yield [7] of the same compound?
Its cell labelling yield is at least 20%.

What about the “time up to which GFP imaging was measurable” value ([8]; 1x10^7 [131I]OIB-labelled cells s.c. in each thigh and shoulder of nude mouse) of the same compound?
Its value is 14 days.

What about the “time up to which labelled cells were visible by gamma camera” value ([8]; 1x10^7 cells s.c. in each thigh and shoulder of nude mouse, gamma camera day 1 to 14) of the same compound?
Its value is 14 days.

Which cell labelling yield [2] does the source give for `CCCCCCCCCCCCCCCCOC(=O)c1ccc([131I])cc1` [[131I]HIB] here?
Its cell labelling yield is at least 20%.

What about the cell labelling yield [3] of the same compound?
The cell labelling yield was at least 20%.

And the cell labelling yield [5]?
Its cell labelling yield is at least 20%.

What about the cell labelling yield [6] of the same compound?
The cell labelling yield was at least 20%.

What about the cell labelling yield [7] of the same compound?
Its cell labelling yield is at least 20%.

With `OC[C@H]1OC(O)[C@H]([18F])[C@@H](O)[C@@H]1O` (stereo partly drawn) [[18F]FDG, 2-[18F]fluoro-2-deoxy-D-glucose] as the compound, how does the “release of label from cells” value [1] read?
The value was “수 시간 후에 세포에서 떨어져 나와”.

With `CCCCCCCCCCCCCCCCOC(=O)c1ccc([124I])cc1` [[124I]HIB] as the compound, how does the “accumulation in thyroid and bladder (microPET)” value [9] read?
The value was “갑상선과 방광 부위에 [124I]HIB가 축적되는 것을 확인”.

And the “accumulation of activity in liver (microPET)” value [9]?
Its value is “간 위치에 활성도가 축적”.

What about the excretion route ([9]; inferred from liver activity) of the same compound?
The excretion route was “간을 통하여 배출되는 것으로 여겨진다”.

What about the “time up to which labelled cells were seen accumulated in lung (microPET)” value [10] of the same compound?
The value was 66 h.

Which results are given for `CNC(=S)NN=CC(C)=NNC(=S)NC.[64Cu]` [[64Cu]PTSM, [64Cu]pyruvaldehyde-bis-(n4-methyl-thiosemicarbazone)]?
release of label from cells ([1]; after incubation with cells): 수 시간 후에 세포에서 떨어져 나와; duration of cell labelling ([1]; compared with other F-18/Cu-64 labelling): 좀 더 장기간 세포 표지가 가능하였다
